Our source for the IC50, Activity and inhibition values is ChEMBL document CHEMBL4340552, “Identification of BMI1 promoter inhibitors from Streptomyces sp. IFM-11958” (Bioorg Med Chem, 2019).

Molecules are shown by their SMILES.

Assay [1] is described as follows: Inhibition of BMI1 promoter in HEK293T cells incubated for 24 hrs by luciferase reporter gene assay. The assay is classed as cell-based. The settings on record: Homo sapiens, HEK-293T.
Assay [2] deals with DU-145. In words: Cytotoxicity against human DU145 cells assessed as reduction in cell viability incubated for 24 hrs by FMCA method. The assay is classed as functional, cell-based. The conditions noted are these: DU-145, 24 h.
Assay [3] has as its system DU-145. The assay is described as follows: Down-regulation of BMI1 mRNA expression in human DU145 cells incubated for 24 hrs by Quantitative RT-PCR analysis. The assay is classed as functional, cell-based.
Assay [4] concerns DU-145. In words: Down-regulation of c-Myc protein expression in human DU145 cells incubated for 24 hrs by Western blot analysis. Format: functional, cell-based.
Assay [5] deals with DU-145. In words: Up-regulation of p16Ink4a mRNA expression in human DU145 cells incubated for 24 hrs by Quantitative RT-PCR analysis. Format: functional, cell-based.
The subject of assay [6] is Huh-7. In words: Inhibition of sphere formation in human HuH7 cells incubated for 72 hrs by sphere forming assay. The assay is classed as functional, cell-based.
Another assay concerns HEK293. The assay is described as follows: Cytotoxicity against HEK293 cells assessed as reduction in cell viability incubated for 24 hrs by FMCA method. Format: cell-based. The conditions noted are these: Homo sapiens, HEK293, 24 h.
For assay [7], the system named is DU-145. The assay is described as follows: Down-regulation of BMI1 protein expression in human DU145 cells incubated for 24 hrs by Western blot analysis. Format: functional, cell-based.
Assay [8] has as its system Huh-7. The assay is described as follows: Cytotoxicity against human HuH7 cells assessed as reduction in cell viability incubated for 24 hrs by FMCA method. The assay is classed as functional, cell-based. The conditions noted are these: Huh-7, 24 h.

`O=C1CCC(=O)N(O)CCCCCNC(=O)CCC(=O)N(O)CCCCCNC(=O)CCC(=O)N(O)CCCCCN1` [NOCARDAMINE] came in with an IC50 in [1] of 22000 nM.

Take `CC[C@@H]1[C@@H](C)O[C@@](O)([C@@H](C)[C@H](O)[C@H](C)[C@H]2OC(=O)/C=C/C=C/[C@H](C)[C@@H]([C@@H](C)[C@@H](O)[C@H](C)[C@@]3(O)C[C@@H](O[C@H]4C[C@H](O)[C@H](O)[C@H](C)O4)[C@H](CC)[C@@H](C)O3)OC(=O)/C(C)=C/C=C/[C@@H]2C)C[C@H]1O[C@H]1C[C@H](O)[C@H](O)[C@H](C)O1`: half-maximal inhibition in [1] (IC50) was put at 447 nM.

Turning to `CC[C@@H]1[C@@H](C)O[C@@](O)([C@@H](C)[C@H](O)[C@H](C)[C@H]2OC(=O)/C=C/C=C/[C@H](C)[C@@H]([C@@H](C)[C@@H](O)[C@H](C)[C@@]3(O)C[C@@H](O[C@H]4C[C@H](O)[C@H](O)[C@H](C)O4)[C@H](CC)[C@@H](C)O3)OC(=O)/C=C/C=C/[C@@H]2C)C[C@H]1O[C@H]1C[C@H](O)[C@H](O)[C@H](C)O1`, the IC50 was determined as 31 nM in the assay with DU-145 [2], 30 nM in assay [1], 200 nM in the assay on HEK293 and 4.2 nM with Huh-7 [8]. Also, the Activity entry in the assay on DU-145 [3] and in the assay with DU-145 [5] was “Dose-dependent effect” each time. The inhibition result in the assay on DU-145 [4], in the assay with Huh-7 [6] and in the assay on DU-145 [7] was “Dose-dependent effect” each time.

The term IC50 denotes the concentration that inhibits the measured activity by half.
